Usually Ki stands for a dissociation constant, usually derived from enzyme kinetics or from competition with a known ligand.

This test concerns the target GABA-AT; GABA aminotransferase 1 (recombinant) (Arabidopsis thaliana, UniProt Q94CE5). Description: inhibition kinetics, LDH-coupled or HPLC assay, competitive fit. Type of test: biochemical.

Turning to `N[C@@H](CS)C(=O)O` [L-cysteine], the inhibitory constant (Ki) stood at 420 µM.

Source of the values: article doi:10.1101/2025.05.23.655777v1 (biorxiv, 2025).
